The values below come from US20070196902A1, “Method of detecting AZT resistance in HIV” (University of Pittsburgh, priority 2006, published 2007).

Common to all, as to test: Drug susceptibility assay in P4/R5 cells, site-directed mutant
Common to all, as to type: cell-based, HIV-1

In one assay the test system is HIVLAI RT Q509L. The procedure:
(§1) Drug susceptibility assays. NRTI susceptibility was determined in P4/R5 cells as described previously (Parikh, U. M., et al. 2005. Antimicrob. Agents Chemother. 49:1139-44). Briefly, threefold dilutions of inhibitor were added to P4/R5 cells in triplicate and cells were infected with an amount of virus that produced 100 relative units of light (RLU) in no drug, virus control wells. After 48 hours, the cells were lysed (Gal-Screen; Tropix/Applied Biosystems, Foster City, Calif.) and the RLU was measured using a ThermoLabSystems luminometer (Waltham, Mass.). The IC50 and fold-resistance were calculated as described above. IC50 values from at least three independent experiments were log10 transformed and compared for statistically significant differences using the two-sample Student's t test.
(§2) Construction of mutant recombinant HIV-1. Mutant recombinant plasmid clones of virus were generated by oligonucleotide site-directed mutagenesis as described previously (Shi, C., and J. W. Mellors. 1997. A recombinant retroviral system for rapid […] analysis of human immunodeficiency virus type 1 susceptibility to reverse transcriptase inhibitors. Antimicrob. Agents Chemother. 41:2781-5), using the p6HRT-MO plasmid. p6HRT-MO contains the entire RT and protease coding sequence as previously described (Le Grice, S. F., and F. Gruninger-Leitch. 1990. Rapid purification of homodimer and heterodimer HIV-1 reverse transcriptase by metal chelate affinity chromatography. Eur. J. Biochem. 187:307-14) and four silent restriction sites (Xma I, Mlu I, Xba I, and NgoM IV from the 5′ to 3′ end of RT at codons 14, 358, 490 and 554, respectively). After site-directed mutagenesis (QIAamp kit, QIAGEN, Valencia, Calif.), the mutated RT was ligated into pxxHIV-1LAI MO that contains the entire genome of HIV-1LAI and the same silent restriction sites as p6HRT-MO. Infectious virus was generated by electroporating the mutated xxHIV-1LAI MO plasmid into MT-2 cells as described above. All mutations in recombinant viruses were confirmed by full-length sequencing of the entire RT coding region.

For the next assay, the system named is HIVLAI RT 67N/70R/509L. Here is the method:
as §1, §2

The test system of assay [1] is HIVLAI RT 67N/70R/215I/371V. The procedure: as §1, §2
Assay [2] deals with HIVLAI RT 67N/70R/215I/509L. Here is the method:
as §1, §2

Assay [3] relates to HIVLAI RT D67N/K70R/T215I/A371V/Q509L. The procedure:
as §1, §2

On to `Cc1cn([C@H]2C[C@H](N=[N+]=[N-])[C@@H](CO)O2)c(=O)[nH]c1=O` [AZT, 3′-azido-3′-dideoxythymidine], for which the IC50 – broadly, the concentration that gives 50% inhibition – in the assay on HIVLAI RT Q509L (Human immunodeficiency virus 1, P4/R5, Q509L, mean ± SD) was 300 ± 200 nM; with HIVLAI RT 67N/70R/509L (Human immunodeficiency virus 1, P4/R5, 67N/70R/509L, mean ± SD), 3000 ± 1000 nM; in assay [1] (Human immunodeficiency virus 1, P4/R5, 67N/70R/215I/371V, mean ± SD), 600 ± 300 nM; in assay [2] (Human immunodeficiency virus 1, P4/R5, 67N/70R/215I/509L, mean ± SD), 3000 ± 2200 nM; in assay [3] (Human immunodeficiency virus 1, P4/R5, 67N/70R/215I/371V/509L, mean ± SD), 9400 ± 6700 nM. For the same molecule, the Fold-Resistance was found to be 1.3 fold in the assay on HIVLAI RT Q509L (Q509L compared to wild-type); 14 fold in the assay with HIVLAI RT 67N/70R/509L (67N/70R/509L compared to wild-type); 2.6 fold in assay [1] (67N/70R/215I/371V compared to wild-type); 14 fold in assay [2] (67N/70R/215I/509L compared to wild-type); 41 fold in assay [3] (67N/70R/215I/371V/509L compared to wild-type).
